Data as given in patent publication EP2982983B1, “METHOD FOR DRUG SUSCEPTIBILITY TESTING OF MYCOBACTERIUM TUBERCULOSIS BY ELECTRON PARAMAGNETIC RESONANCE” (priority 2014, dated 2016).

What was measured:
[1] = species not given; cited from earlier work
[2] = tested on: M. tuberculosis H37Rv (ATCC 27294); format: cell-based, Mycobacterium tuberculosis; settings: one day (24 h) exposure to the Cmax of the drug (rifampicin 8 µg/ml, moxifloxacin 4 µg/ml, amikacin 8 µg/ml), compared with control without drug

For COc1c(N2C[C@@H]3CCCN[C@@H]3C2)c(F)cc2c(=O)c(C(=O)O)cn(C3CC3)c12 [moxifloxacin], the “Cmax value (maximum drug concentration in serum)” value (from here on “Cmax value”) [1] is listed as 4000 ng/mL.
For NCC[C@H](O)C(=O)N[C@@H]1C[C@H](N)[C@@H](O[C@H]2O[C@H](CN)[C@@H](O)[C@H](O)[C@H]2O)[C@H](O)[C@H]1O[C@H]1O[C@H](CO)[C@@H](O)[C@H](N)[C@H]1O [amikacin], the “rate of CP^• formation” value [2] is listed as “quite high rate” and the “Cmax value” value [1] is listed as 8000 ng/mL.
In the case of CO[C@H]1/C=C/O[C@@]2(C)Oc3c(C)c(O)c4c(O)c(c(/C=N/N5CCN(C)CC5)c(O)c4c3C2=O)NC(=O)/C(C)=C\C=C\[C@H](C)[C@H](O)[C@@H](C)[C@@H](O)[C@@H](C)[C@H](OC(C)=O)[C@@H]1C [rifampicin], the “Cmax value” value [1] is listed as 8000 ng/mL.
